Molecule `CN(C)Cc1ccc(CSCCNC(=C[N+](=O)[O-])NCc2ccc3c(c2)OCO3)o1` has a melting point of 98 to 120 °C.
Work on `CCCNC(=O)CCCc1ccc2c(c1)c(Cc1ccc(C(=O)NS(=O)(=O)c3ccccc3C)cc1OC)cn2CCC` yielded a melting point of 94 to 95 °C.
`COc1ccc(CSCC(=O)NO)cc1OC` showed a melting point of 78 °C.
Work on `Cc1cc(C)c(Nc2nc(C)ccc2S(=O)(=O)c2ccc(OCCCCC#N)cc2)c(C)c1` yielded a melting point of 115 to 116 °C.
With `Cc1cc(NC(=O)CC#N)nc(C)n1` the melting point was 178 °C.
For `Cc1cc2ccccc2c(Cl)c1C`, the melting point was 55 °C.
With `O=C1C(=O)c2ccccc2C2=C1SCC1(CCN(CC(O)Cc3ccccc3)CC1)O2` (configuration not stated) the melting point was 82 to 84 °C.
`CCOC(=O)Cc1c([N+](=O)[O-])cc(OCc2ccccc2)c2ccccc12` gave a melting point of 128 to 130 °C.
For `NC(=O)c1[nH]c2ccc(Cl)cc2c1S(=O)(=O)c1ccccn1`, the melting point was 244 to 246 °C.
In the case of `O=C(O)C=Cc1ccc2ccccc2c1`, the melting point was 207 to 208 °C.
In the case of `COc1ccc(OC)c2c1CCC(O)(CCO)C2` (configuration not stated), the melting point was 121 to 122 °C.
`Cc1ccc(S(=O)(=O)NN=C(Cc2ccc(OCc3ccccc3)cc2)c2cc(OCc3ccccc3)cc(OCc3ccccc3)c2)cc1` gave a melting point of 147 °C.
Work on `CN(C)CC(O)COc1ccc2c(c1)OC(C)(C)CC2c1cccc2ccccc12` (configuration not stated) yielded a melting point of 123 to 125 °C.
`Cc1nc(C)c(Cl)c(NCc2nccc(N(C)CCCSCCn3c([N+](=O)[O-])cnc3C)c2Cl)n1` showed a melting point of 123 to 126 °C.
In the case of `CCC(Oc1cc(C)ccc1C)C(=O)OC1CC(O)C=C2C=CC(C)C(CCC3CC(O)CC(=O)O3)C21` (mixture of isomers), the melting point was 138 to 140 °C.
In the case of `CC(=O)OC1C(COC(=O)c2ccccc2)OC(n2cc(Cl)c(N)nc2=O)C1F` (configuration not stated), the melting point was 233 °C.
For `CSCC(NCc1cc(Br)cc(Br)c1N)C(=O)O` (configuration not stated), the melting point was 240 °C.
In the case of `O=C1N(Cc2nccnc2C(F)(F)F)c2ccccc2C12COc1cc3c(cc12)OCCO3` (configuration not stated), the melting point was 230 to 232 °C.
Work on `COc1cccc(C(=O)c2cc3ccc(OC)cc3o2)c1` yielded a melting point of 63 to 65 °C.
Molecule `COc1ccc(-c2cc(=Nc3c(C)cc(C)cc3C)n(C)c(SC)n2)cc1OC` has a melting point of 172 to 173 °C.
`O=C(Cn1nnnc1-c1ccsc1)OCCO` gave a melting point of 103 to 106 °C.
With `COC(=O)c1cccc2nc(SCCCCCCCCC(=O)Nc3c(SC)cc(C)nc3SC)oc12` the melting point was 126 to 128 °C.
With `CC(Cc1c[nH]c2ccccc12)(NC(=O)OC1C2CC3CC(C2)CC1C3)C(=O)NC1CCCCC1C(=O)O` (configuration not stated) the melting point was 230 to 234 °C.
With `Brc1ccc2c(c1)Cc1cc(I)ccc1-2` the melting point was 179 to 185 °C.
`CCOC(=O)C1CCC(c2ccccc2)n2c(=O)n(CCl)c(=O)n21` (configuration not stated) showed a melting point of 104 to 106 °C.
Molecule `O=C(Nc1ccccc1)Nc1ncc(Oc2ccc(Cl)cc2)c(N2CCOCC2)n1` has a melting point of 229 to 231 °C.
Molecule `CNC(c1cccc(OCOC)c1)C1CCCCC1O` (configuration not stated) has a melting point of 87 to 89 °C.
For `Cc1ccc(Cc2cnc(NCCSCc3csc(CN(C)C)n3)[nH]c2=O)cn1`, the melting point was 154 to 155 °C.
For `COC(=O)c1cc(C(C)=O)ccc1OC`, the melting point was 72 to 74 °C.
In the case of `CN(C)CCNC(=O)c1cc(S(C)(=O)=O)c(Cl)cc1NCc1ccco1`, the melting point was 102 to 105 °C.
In the case of `COc1ccccc1NC(=O)Nc1nc(N(CCC(=O)O)Cc2cccc(C)c2)nc(N2CCc3ccccc32)n1`, the melting point was 201 °C.
`Cc1[nH]c2ccccc2c1CSCCN1CC=C(c2ccccc2)CC1` gave a melting point of 182 °C.
For `CC12CCC3C(CC=C4NC(=O)CCC43C)C1CC=C2I` (configuration not stated), the melting point was 227 to 230 °C.
Work on `CCC1C(=O)c2cc(OCC(=O)O)c(C)c(C)c2C1=O` (configuration not stated) yielded a melting point of 187 to 193 °C.
Molecule `O=C(O)CCCCCCCCCCCCCCCCCCCCCN1C(=O)C=CC1=O` has a melting point of 106 °C.
With `CCCCCCCCCCCCn1c2nc(=O)[nH]c(=O)c-2nc2cc(C)c(C)cc21` the melting point was 223 to 224 °C.
Molecule `Cc1onc(-c2ccccc2)c1C(=O)NC1C(=O)N2C1SCC(C)(Cl)C2C(=O)O` (configuration not stated) has a melting point of 210 °C.
For `CCOC(=O)C(Cc1ccc(CC(F)(F)C(F)(F)F)cc1)C(=O)c1cccc(Cl)c1` (configuration not stated), the melting point was 81 to 82 °C.
Work on `O=C(O)c1ccc2nc(/C=C/c3ccccc3)cc(=O)n2c1` yielded a melting point of 293 to 295 °C.
For `COc1ccc(Cn2nnnc2C(=O)Nc2cccc(N3CCCCC3)c2C#N)cc1`, the melting point was 166 to 168 °C.
For `Cc1cn(CC#CCN2CCCC2=O)cn1`, the melting point was 134 to 137 °C.
For `CCCc1c(OCCOCCOc2ccc3ccc(OCC(=O)OC)cc3c2C(C)=O)ccc(C(C)=O)c1O`, the melting point was 89 to 90 °C.
Molecule `O=c1c(-c2ccccc2)c(CNc2ncnc3[nH]cnc23)oc2ccc(Br)cc12` has a melting point of 151 to 154 °C.
`Cc1cn([C@H]2CC(N=[N+]=[N-])[C@@H](COC(=O)C(C)(C)CC(=O)N[C@@H](Cc3ccccc3)[C@H](O)C(=O)N3CSC[C@H]3C(=O)NC(C)(C)C)O2)c(=O)[nH]c1=O` (some centres not stated) gave a melting point of 83 to 84 °C.
`CCCOc1cc(NC(=O)C[C@H]2O[C@H](c3cccc(OC)c3OC)c3cc(Cl)ccc3N(CC(C)(C)COC(C)=O)C2=O)cc2cc(C(=O)OC)oc12` showed a melting point of 146 to 147 °C.
`CCc1nc2c(C)cc(C)nc2n1-c1ccc(CCNC(=O)NS(=O)(=O)c2cc3ccccc3s2)cc1` gave a melting point of 128 to 130 °C.
In the case of `O=C(Nc1nc(C(F)(F)F)co1)C1c2ccccc2Oc2ccc(F)cc21` (racemic), the melting point was 241 °C.
With `CC(=O)C1CCC2C3CCC4CC=CCC4(C)C3C(N)CC12C` (configuration not stated) the melting point was 127 to 129 °C.
In the case of `CC1Sc2c(C(=O)O)c(=O)c3cc(F)c(N4CCNC(=O)C4)cc3n21` (configuration not stated), the melting point was 198 to 200 °C.
Molecule `CC(=O)OCc1ccc(CC(C)NCC(O)c2ccccc2)cc1` (configuration not stated) has a melting point of 78 to 82 °C.
In the case of `O=C(O)c1cnc(Nc2cc3c4c(c2)CCCC4CCC3)nc1`, the melting point was 296 to 298 °C.
`O=C(N=C1CCCN1Cc1ccccc1)Nc1cccc(Cl)c1` gave a melting point of 91 to 93 °C.
With `COc1cc2c(cc1F)OCC21C(=O)N(Cc2ccc(C(F)(F)F)o2)c2ccccc21` (configuration not stated) the melting point was 132 to 134 °C.
With `O=C(Nc1cc(Cl)ccc1S(=O)(=O)c1ccccc1)N[C@@H](Cc1ccc(NC(=O)c2c(Cl)cncc2Cl)cc1)C(=O)O` the melting point was 204 °C.
`C=C(C)n1c(=O)n(CCCCl)c2ccccc21` gave a melting point of 115 °C.
Work on `COc1cc(N2CCOCC2)ccc1Nc1nc(Nc2cc(F)cc3c2OCCNC3=O)ncc1Cl` yielded a melting point of over 230 °C.
In the case of `CCCCn1c(=O)c(C(=O)OCC)c(N)c2cnc(C)nc21`, the melting point was 214 to 216 °C.
Work on `O=C1CC(c2ccccc2)c2cccc(CCN3CCN(c4nsc5ccccc45)CC3)c2N1` (configuration not stated) yielded a melting point of 227 °C.
With `NCCCNc1n[nH]c(=O)c2ccccc12` the melting point was 147 to 148 °C.
Molecule `O=C(O)C(c1ccccc1)N1C(=O)c2cccc([N+](=O)[O-])c2C1=O` (configuration not stated) has a melting point of 213 to 229 °C.
`COc1ccc2oc3ccccc3c(=O)c2c1` showed a melting point of 128 to 130 °C.
`NS(=O)(=O)c1ccccc1-c1cnco1` showed a melting point of 157 to 163 °C.
Molecule `CCC(C)C(OCc1ccccc1)C1C(C(=O)NCC(=O)O)NC(C2CCCCC2)C1[N+](=O)[O-]` (configuration not stated) has a melting point of 177 to 179 °C.
With `O=C1NCc2cccnc2N1c1ccccc1` the melting point was 269 to 271 °C.
`O=C(NCCCCCNC(=O)c1ccc(OC(F)(F)F)cc1)c1ccc(OC(F)(F)F)cc1` showed a melting point of 154 to 155 °C.
Molecule `CC(C)(C)OC(=O)Nc1ccc(F)c(F)c1C(=O)O` has a melting point of 160 °C.
In the case of `O=C(O)C(CCc1ccccc1[N+](=O)[O-])N1C(=O)c2ccccc2C1=O` (configuration not stated), the melting point was 177 to 179 °C.
For `COc1cc(-c2nc(-c3ccc(N(C)C)cc3)c(C)[nH]2)ccc1OP(=O)(O)O`, the melting point was 226 to 230 °C.
`CCOC(=O)Nc1ccc(OCCCCl)cc1` gave a melting point of 91 to 93 °C.
With `CC(=O)c1c(C)c2ccccc2n1N` the melting point was 94 to 98 °C.
With `CC(C)(C)OC(=O)Nc1ccc(-c2cc(F)ccc2F)cc1[N+](=O)[O-]` the melting point was 104 °C.
With `CCc1ccc(NC(=S)Nc2cc([N+](=O)[O-])ccc2O)cc1` the melting point was 137 to 138 °C.
For `N=C(N)Nc1nc(Cl)cc(Cl)n1`, the melting point was over 360 °C.
In the case of `Nc1ccccc1NC(=O)c1ccc(CNC(=O)c2[nH]c(-c3ccoc3)cc2-c2ccc(O)cc2)cc1`, the melting point was 70 to 72 °C.
With `O=C(O)c1ncc2[nH]c3c([N+](=O)[O-])cc([N+](=O)[O-])cc3c2n1` the melting point was 269 to 272 °C.
`C/C=C/C(=O)NCCc1ccc(F)cc1` gave a melting point of 121 to 123 °C.
With `CC(C)c1cc(C(C)C)c(C(O)C(=O)c2ccc(C(C)C)c(OS(N)(=O)=O)c2C(C)C)c(C(C)C)c1` (configuration not stated) the melting point was 96 to 101 °C.
For `COc1ccc([N+](=O)[O-])cc1C(O)OC` (configuration not stated), the melting point was 147 to 148 °C.
Molecule `Cc1nc(N)nc(N)c1-c1cc(Cl)cc(Cl)c1Cl` has a melting point of 236 to 238 °C.
For `CCOC(=O)CCOc1cccc2c1CCC2=O`, the melting point was 90 to 92 °C.
For `O=C(Nc1ccc(N2CC(F)(F)C2)nc1)c1cc2cc(C(F)(F)F)cnc2n1Cc1cccc(F)c1`, the melting point was 222 to 224 °C.
Molecule `CC(C)[C@H](NC(=O)OCc1csc(N2CCCC2)n1)C(=O)N[C@@H](Cc1ccccc1)[C@@H](O)C[C@H](Cc1ccccc1)NC(=O)OCc1cncs1` has a melting point of 165 to 167 °C.
For `N#CCCOc1cccc(OCCC#N)c1`, the melting point was 109 to 110 °C.
With `NC(=O)c1cc(-c2ccc(F)cc2)ccc1O` the melting point was 206 to 207 °C.
Molecule `Cc1cc2oc(=O)c(NC(N)=O)c(-c3ccccc3C)c2cc1Cl` has a melting point of 240 to 242 °C.
Work on `OCc1ccc(-c2cncc(OC3SCC(O)C(O)C3O)c2)cc1` (configuration not stated) yielded a melting point of 153 °C.
In the case of `NCCN1CCC(Nc2nc3ccccc3n2Cc2ccccn2)C1` (configuration not stated), the melting point was 130 °C.
For `CCCc1ccc(-c2ncccc2S(=O)(=O)Nc2ncc(C)nc2OC)cc1`, the melting point was 70 to 72 °C.
`O=C1c2ccccc2C(=O)N1CCc1c[nH]c2ccc(Br)cc12` gave a melting point of 206 to 209 °C.
For `CC(C)(CO)c1ccc2c(c1)OC(C(F)(F)F)C(C(=O)O)=C2` (configuration not stated), the melting point was 229 to 230 °C.
Work on `O=c1oc(CCc2ccccc2)cc(O)c1SCc1ccccc1` yielded a melting point of 164 to 166 °C.
`CCCCc1nc2c(N)nc3ccccc3c2n1CCOCC#Cc1ccccc1` showed a melting point of 133 to 140 °C.
Work on `CC(C)c1c(CO)c(-c2ccc(F)cc2)c2n1CCCC2` yielded a melting point of 97 to 99 °C.
Work on `COC(=O)c1ccccc1NC(=O)CCl` yielded a melting point of 97 to 99 °C.
`CC(C)S(=O)(=O)N1CCN(Cc2ccc(COc3cccc4c3CN(C3CCC(=O)NC3=O)C4=O)cc2)CC1` (configuration not stated) gave a melting point of 233 to 235 °C.
`CN1C2CCC1CN(C(=O)c1ccco1)C2` showed a melting point of 106 °C.
`COc1ccc(C(C#N)Sc2ccccn2)cc1OC` (configuration not stated) showed a melting point of 108 to 110 °C.
